According to US20130149721A1, “Methods for Inhibiting Amyloid Precursor Protein and Beta-Amyloid Production and Accumulation” (WISCONSIN ALUMNI RESEARCH FOUNDATION, priority 2008, published 2013):

Experiments:
[1] = test system: FMRP-associated APP mRNA in WT SN; assay: FMRP immunoprecipitation and RTqPCR of associated APP mRNA in synaptoneurosomes; assay type: cell-based, mouse
Description: SNs were prepared from WT and Fmr-1 KO mouse cortical tissue (Dunkley et al., 1988, Brain Res 441: 59-71; Bagni et al., 2000, J Neuorsci 20: RC76). Briefly, mouse pups aged 14-17 d were killed by carbon dioxide asphyxiation followed by removal of the brain cortices. The cortices were washed in ice-cold gradient medium (GM buffer: 0.25 M sucrose, 5 mM Tris (pH 7.5), and 0.1 mM EDTA), transferred to a glass dounce homogenizer containing ice-cold GM buffer, and gently homogenized with five strokes of the loose pestle followed by five strokes of the tight pestle. The homogenate was spun at 1000 g for 10 min at 4° C. in round-bottom tubes to pellet cellular debris and nuclei. […] The protein concentration of the SNs was determined by Bradford assay and ranged from 200-500 ng/μl. […]
SN lysates were precleared with protein A magnetic beads and immunoprecipitated with 10 μl RNasin, 10 μg 7G1-1 antiFMRP antibody (or in the absence of antibody as a control), and 100 μl packed fresh protein A magnetic beads for 3 h at 4° C. […] The final pellet was suspended in DEPC-treated water, solubilized 10 min at 60° C., and reverse transcribed with Qiagen Omniscript and random nonamer primer (60 min at 37° C., 5 min at 93° C.). cDNA produced in this reaction was diluted 5-fold and analyzed for APP by qPCR as described immediately above. […]

[2] = test system: audiogenic seizures in Fmr-1 KO mice; conditions: intraperitoneal injections; cited from earlier work

Row | SMILES | time to loss of APP mRNA-FMRP complex ([1]; WT SN contacted with DHPG) [min] | difference in FMRP-associated APP mRNA ([1]; WT SN, untreated vs 100 μM DHPG, 60 min) [fold] | effect on audiogenic seizures [2]
1 | N[C@@H](C(=O)O)c1cc(O)cc(O)c1 (racemic) [DHPG, (R,S)-3,5-dihydroxyphenylglycine] | ≤ 5 | > 60 | 
2 | Cc1cccc(C#Cc2ccccc2)n1 [MPEP, 2-methyl-6-(phenylethynyl)pyridine] |  |  | reduce
